Test in all cases: NCI-60 cell line screen, 48 h
In assay [1] the test system is OVCAR-5 ovarian.
For assay [2], the system named is OVCAR-3 ovarian.
The subject of assay [3] is EKVX NSCLC.
Assay [4] has as its system SNB-19 CNS.
Assay [5] relates to ACHN renal.
Assay [6] concerns HCT-15 colon.
The test system of assay [7] is RXF 393 renal.
Assay [8] has as its system MCF7 breast.
The test system of assay [9] is RPMI-8226 leukemia.
For assay [10], the system named is NCI/ADR-RES ovarian.

Data on 16 compounds can be found in PubChem BioAssay (NCI).

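Compound exposure: 48 hours, 5 concentrations, 96-well plates. TGI marks complete inhibition of growth.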 Some results are limits rather than exact numbers.

In the case of `O=C1NC2OC(C(O)CO)C(O)C2O1` (stereo not drawn), the TGI in [1], in [2], in assay [3], in assay [4], in assay [5] and in assay [6] was more than 100 µM in each case.
For `O=C1CSC(/C(=N/Nc2ccccc2)c2nc3ccccc3[nH]2)=N1`, the TGI in assay [1] is more than 100 µM; in assay [2] it was 73.2 µM; in [3], more than 100 µM; in assay [4] it was more than 100 µM; in assay [5], more than 100 µM; in assay [6], more than 100 µM.
`CC(C)CC(O)P(=O)(O)O` (stereo not drawn): the TGI in assay [7], in assay [8], in assay [1], in [2], in assay [3] and in assay [9] was more than 100 µM throughout. Also, the TGI in assay [4] and in [5] was more than 100 µM in each case.
As for `Cn1c(COC(=O)Nc2ccccc2)c(COC(=O)Nc2ccccc2)c2ccc3cc(Cl)c(Cl)cc3c21`, the TGI in assay [10] stood at 66.7 µM; in assay [7] it was 39.5 µM; in [8], 10.6 µM; in [1], 24.1 µM; in [2], 21.6 µM; in [3], 44.5 µM. Also, the TGI in [4] is more than 75 µM; in assay [5], 29 µM; in [6] it was 15 µM.
As for `CC1=NNC(=O)C1C(CC(=O)c1c[nH]c2ccccc12)C(=O)O` (stereo not drawn), the TGI in assay [10], in assay [7], in assay [1], in [2], in assay [3] and in assay [9] was more than 100 µM throughout. The TGI in assay [4], in assay [5] and in assay [6] was more than 100 µM each time.
For the compound `Cc1ccc(O)c(-c2cscn2)c1`, the TGI in assay [10], in assay [8], in assay [1], in assay [2], in assay [3] and in assay [9] was more than 100 µM each time. The TGI in assay [4], in assay [5] and in assay [6] was more than 100 µM in each case.
As for `CSc1sc2ccccc2[s+]1`, the TGI in assay [7], in [1], in [9], in [4], in assay [5] and in assay [6] was more than 100 µM each time.
In the case of `Nc1ccn(C2OC(CO)C(O)C2O)c(=O)c1` (stereo not drawn), the TGI in [10] was more than 625 µM; in assay [7], more than 625 µM; in assay [8], more than 625 µM; in [2], more than 625 µM; in assay [9], 524 µM; in assay [4] it was more than 625 µM. The TGI in assay [6] was more than 625 µM.
`CCNC(=O)Nc1cccc(NC(=O)NCC)n1`: the TGI in assay [7], in assay [8], in assay [1], in assay [2], in assay [3] and in assay [4] was more than 100 µM throughout. The TGI in assay [5] was more than 100 µM.
As to `COc1ccc2c(c1)CCN1CCc3ccccc3CC21` (stereo not drawn), the TGI in assay [10] is more than 100 µM; in [8], more than 100 µM; in [1] it was more than 100 µM; in [2], more than 100 µM; in assay [3], more than 100 µM; in assay [9], 54.9 µM. Moreover, the TGI in [4], in assay [5] and in assay [6] was more than 100 µM throughout.
Consider `OCc1ccc(C2CC(c3ccco3)=NN2c2ccccc2)o1` (stereo not drawn), for which the TGI in assay [7], in assay [1], in assay [2], in assay [3], in [9] and in assay [4] was more than 100 µM throughout. In addition, the TGI in [5] and in [6] was more than 100 µM each time.
In the case of `[N-]=[N+]=NC1=C(c2ccccn2)C(=O)c2cccc3cccc1c23`, the TGI in assay [10], in assay [7], in assay [8], in [1], in assay [2] and in assay [9] was more than 100 µM each time. Besides, the TGI in assay [4], in assay [5] and in [6] was more than 100 µM in each case.
Turning to `C=CCOc1ccc(C2(O)c3ccccc3C3=NCCCN32)cc1` (stereo not drawn), the TGI in assay [10] was more than 100 µM; in assay [8], more than 100 µM; in [1], more than 100 µM; in assay [2] it was more than 100 µM; in assay [3] it was more than 100 µM; in assay [9], more than 78.5 µM. Moreover, the TGI is more than 100 µM in [4], more than 72.2 µM in assay [5] and more than 100 µM in assay [6].
With `S=C(Nc1ccc2c(c1)oc1ccccc12)c1cccnc1`, the TGI was more than 100 µM in [10]; more than 100 µM in assay [8]; more than 100 µM in [1]; 67.3 µM in assay [2]; more than 100 µM in assay [3]; more than 100 µM in [9]. Moreover, the TGI in assay [4] was 77.7 µM; in [5] it was more than 100 µM; in assay [6], more than 100 µM.
Take `COC1C=COC2(C)Oc3c(C)c(O)c4c(O)c(c(C5SCCS5)c(O)c4c3C2=O)NC(=O)C(C)=C/C=C\C(C)C2OC(C)(C)OC(C2C)C(C)C(OC(C)=O)C1C` (stereo not drawn): the TGI is more than 100 µM in assay [10]; 30 µM in assay [7]; 7.77 µM in [8]; more than 100 µM in [1]; more than 100 µM in assay [2]; more than 100 µM in [9]. The TGI in assay [4] is more than 100 µM; in assay [5], 6.53 µM; in assay [6], 38.4 µM.
Turning to `COc1cc2c3c(c1OC)C1(C=CC(=O)C=C1)C[C@H]3N(C)CC2`, the TGI in [7], in assay [1], in assay [2], in assay [3], in assay [9] and in assay [4] was more than 100 µM in each case. The TGI in [5] and in [6] was more than 100 µM in each case.
